In patent US4448717A, “Pharmacologically active peptides” (Eli Lilly and Company, priority 1982, dated 1984):

Tests used:
mice = conditions: cited from earlier work
enkephalin (δ) receptor = biological target: T1, enkephalin (δ) receptor (Mus musculus, UniProt P32300); experiment: mouse vas deferens assay; assay type: cell-based; conditions: depression of 50% of the electrically evoked contraction, field stimulation 0.15 Hz, 37° C.
T1 construct: from tissue; host or cells: mouse vas deferens (Harlan ND4 mice)
Method: In the mouse vas deferens test, single mouse vas deferens from mature mice (Harlan ND4, 30-40 g.) are suspended in 3 ml. of modified Kreb's solution aerated with 95% O2 -5% CO2 and maintained at 37° C. The twitch induced by field stimulation (0.15 Hz, 1 msec., 40V) is recorded on a polygraph via an isometric transducer. The test compound is added to the bath in 20 to 30 μl. aliquots. A dose-response curve is constructed by cumulative addition of appropriate amounts of the compound to the bath. Comparison of relative agonist potency at the δ receptor is made on the basis of IC50 values (concentration causing depression of 50% of the electrically evoked contraction).
The Table following also provides results for compounds of this invention when tested in the mouse vas deferens assay.

mouse (Harlan ND4) = experiment: mouse hot plate test (mouse jump); assay type: in vivo; conditions: subcutaneous injection, 15 minutes after administration, hot plate 55° C., dose producing analgesia in 50% of mice
Method: In this test, an upright acrylic cylinder comprising, as its base, a hot plate surface which is maintained at 55° C. is used. A mouse (Harlan ND4) is given, by subcutaneous injection, a predetermined amount of test compound dissolved or suspended in a suitable carrier, and, 15 minutes after administration of the test compound, the mouse is placed on the hot plate surface. The latency in seconds until the mouse jumps from the hot plate surface is measured. […] This must occur in a dose range which produces no motor incoordination or incapacitation. The following Table records ED50 results obtained from this test. By the term "ED50 " is meant that dose which produces analgesia in 50% of the mice tested. Analgesia is defined as a response latency in the presence of test compound that is equal to or greater than the control response latency plus two standard deviations. The percent analgesia data are converted to probits, and the ED50 is calculated by regression analysis of the dose-response data. Each dose response curve must have at least four points, and each point is determined using data from a minimum of ten treated mice and ten control mice.

T1 sequence (P32300 whole entry): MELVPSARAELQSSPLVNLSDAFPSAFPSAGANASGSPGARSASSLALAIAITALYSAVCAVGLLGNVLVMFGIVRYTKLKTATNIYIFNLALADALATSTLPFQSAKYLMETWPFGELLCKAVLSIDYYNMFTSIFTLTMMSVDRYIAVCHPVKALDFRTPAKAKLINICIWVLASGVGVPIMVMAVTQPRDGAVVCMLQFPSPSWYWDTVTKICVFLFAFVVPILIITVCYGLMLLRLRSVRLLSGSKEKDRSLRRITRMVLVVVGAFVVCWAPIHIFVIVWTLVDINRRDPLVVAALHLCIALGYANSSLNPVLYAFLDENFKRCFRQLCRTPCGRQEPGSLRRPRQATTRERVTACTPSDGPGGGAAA

In the case of “H-Tyr-Gly-Gly-Phe-Met-OH [methionine enkephalin]”, the “analgesic activity when administered parenterally” value (mice) is given as “practically devoid of any useful analgesic activity”.

In the case of `CC(=O)C(Cc1ccccc1)NC(=O)CNC(=O)[C@@H](C)NC(=O)[C@@H](N)Cc1ccc(O)cc1` (stereo partly drawn) [Example 1, L-Tyrosyl-D-alanyl-N-(2-oxo-1-benzylpropyl)glycinamide], the IC50 (enkephalin (δ) receptor) is reported as 0.49 nM and the “Mouse Jump ED50” value (mouse (Harlan ND4)) is reported as 3.2 mg/kg.

With `CCN(C(=O)CNC(=O)[C@@H](C)NC(=O)[C@@H](N)Cc1ccc(O)cc1)[C@@H](Cc1ccccc1)C(C)=O` [Example 2, L-Tyrosyl-D-alanyl-N-ethyl-N-(2-oxo-1-benzylpropyl)glycinamide] the IC50 (enkephalin (δ) receptor) was 0.71 nM and the “Mouse Jump ED50” value (mouse (Harlan ND4)) was 0.006 mg/kg.
